Laboratory results as given in PubChem BioAssay (NCI).
Values joined by “and” are separate entries in the source; they are usually repeats but may differ in a detail not shown here. Equal entries are not always repeated.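 A five-concentration, 48-hour dose response in 96-well plates underlies each endpoint, interpolated linearly between surrounding concentrations. GI50 is the concentration that inhibits growth by half. TGI denotes the concentration required for complete inhibition of growth.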

What was measured:
Test in all cases: NCI anticancer screen, dose series, 48 h
ACHN renal = system: ACHN renal
KM12 colon = system: KM12 colon
MALME-3M melanoma = system: MALME-3M melanoma
NCI-H226 lung = system: NCI-H226 lung
OVCAR-3 ovarian = system: OVCAR-3 ovarian
SF-295 CNS = system: SF-295 CNS
SK-OV-3 ovarian = system: SK-OV-3 ovarian
T-47D breast = system: T-47D breast
TK-10 renal = system: TK-10 renal
U251 CNS = system: U251 CNS

Row | Compound | GI50 (ACHN renal) | TGI (ACHN renal) | GI50 (KM12 colon) | TGI (KM12 colon) | GI50 (MALME-3M melanoma) | TGI (MALME-3M melanoma) | GI50 (NCI-H226 lung) | TGI (NCI-H226 lung) | GI50 (OVCAR-3 ovarian) | TGI (OVCAR-3 ovarian) | GI50 (SF-295 CNS) | TGI (SF-295 CNS) | GI50 (SK-OV-3 ovarian) | TGI (SK-OV-3 ovarian) | GI50 (T-47D breast) | TGI (T-47D breast) | GI50 (TK-10 renal) | TGI (TK-10 renal) | GI50 (U251 CNS) | TGI (U251 CNS)
1 | O=C(Cc1ccc(/C=C/C(=O)c2ncc[nH]2)cc1)Nc1cc(F)c(F)c(F)c1 | 3.89 µM | 7.23 µM | 2.81 µM | 6.85 µM | 4.33 µM | 12.2 µM | 4.83 µM | 12.8 µM | 2.81 µM | 6.14 µM | 6.82 µM | 20.5 µM | 7.01 µM | > 25 µM | 2.91 µM | 10.5 µM | 4.51 µM | 10.1 µM | 0.992 µM | 3.8 µM
2 | Cc1ccc(C)c(C2=C(c3cn(C)c4ccccc34)C(=O)NC2=O)c1 | 9.15 µM | > 25 µM | 12.6 µM | > 25 µM | > 25 µM | > 25 µM | > 25 µM | > 25 µM | 15.1 µM | > 25 µM | 4.4 µM | > 19.4 µM | 15.1 µM | > 25 µM | 14 µM | > 25 µM | > 25 µM | > 25 µM | > 25 µM | > 25 µM
3 | COc1ccc(CN2C(=O)/C(=C\C(=O)c3ccc(OCCN4CCCCC4)cc3)c3ccccc32)cc1 | 1.69 µM | 3.05 µM | 12 µM | 28.6 µM | 1.82 µM | 3.41 µM | 14.9 µM | 32.2 µM | 1.93 µM | 3.94 µM | 13.8 µM | 31.8 µM | 18.4 µM | 34.3 µM | 1.64 µM | 3.29 µM | 1.69 µM | 3.18 µM | 2.24 µM | 5.15 µM
4 | O=C(Nc1nc2ccc(C(F)(F)F)cc2s1)c1cc(Cl)ccc1O | 0.894 µM | > 100 µM | 0.611 µM | 22 µM | 0.626 µM | 4.48 µM | 1.23 µM | 11.4 µM | 0.422 µM | 56 µM | 0.831 µM | 3.16 µM | 0.497 µM | 4.77 µM | 0.303 µM | 2.96 µM | 0.76 µM | 34 µM | 1.44 µM | 26.9 µM
5 | O=C(CNc1ccc(Cl)cc1)Nc1ccc(-c2nc3ccccc3s2)cc1 | 5.81 µM | 12.6 µM | 5.39 µM | 16.5 µM | 6.06 µM | 12.6 µM | 2.94 µM | 11 µM | 2.04 µM | 3.99 µM | 14.1 µM | 28.8 µM | 12 µM | > 78.6 µM | 5.2 µM | 16.6 µM | 5.98 µM | 13.7 µM | 5.24 µM | 10.8 µM
6 | CCCCCCCCCCCCOC1C(C(COC2OC(C3COC(C)(C)O3)C3OC(C)(C)OC23)NC(=O)Nc2ccc(C(=O)O)cc2)OC2OC(C)(C)OC21 (centres undefined) | 3.56 µM | 12.2 µM | 2.22 µM | 4.36 µM | 2.88 µM | 6.91 µM | 3.45 µM | 19.2 µM | 2.48 µM | 7.49 µM | 2.15 µM | 5.69 µM | 11.7 µM | 24 µM | 3.39 µM | 13.5 µM | 4.13 µM | 14.4 µM | 3.3 µM | 11.1 µM
7 | O=C1/C(=C/c2ccc(Br)cc2)COc2ccc(O)c(O)c21 | 0.828 µM | 2.09 µM | 1.11 µM | 3.35 µM | 1.11 µM | 3.35 µM | 2.01 µM | 5.52 µM | 0.493 µM | 1.56 µM | 2.57 µM | 6.83 µM | 2.63 µM | 11.6 µM | 0.906 µM | 3.16 µM | 1.7 µM | 3.2 µM | 0.588 µM | 2.04 µM
8 | O=C1NC(=O)C(c2cnc3ccccn23)=C1c1cn2c3c(cc(F)cc13)CN(C(=O)N1CCCCC1)CC2 | 1.37 µM | > 72.5 µM | 10.6 µM | 25.4 µM | 30.7 µM | 60.8 µM | 3.7 µM | 54.8 µM | 11.8 µM | 44 µM | 0.142 µM | 33.9 µM | 15.5 µM | 71.9 µM | 9.79 µM | > 69.2 µM | 0.0416 µM | 23.8 µM | 1.89 µM | 24.3 µM
9 | CCN(CC)CCCC(CNc1ccnc2cc(Cl)ccc12)c1ccc(Cl)cc1 (centres undefined) | 1.31 µM and 0.705 µM | 2.89 µM and 2.07 µM | 1.77 µM and 1.54 µM | 3.52 µM and 4.33 µM | 1.41 µM and 1.25 µM | 3.02 µM and 2.72 µM | 2.14 µM and 2.55 µM | 5.81 µM and 8.83 µM | 2.46 µM and 2.38 µM | 7.73 µM and 9.83 µM | 1.79 µM and 1.35 µM | 3.54 µM and 2.76 µM | 2 µM and 1.82 µM | 4.04 µM and 3.81 µM | 1.64 µM and 2.06 µM | 3.42 µM and 4.02 µM | 1.67 µM and 0.83 µM | 3.24 µM and 2.08 µM | 1.54 µM and 0.95 µM | 3.01 µM and 2.48 µM
10 | O/N=C/C1C(OCc2ccccc2)C(OCc2ccccc2)C(OCc2ccccc2)CN1Cc1ccccc1 (centres undefined) | 15.2 µM and 4.4 µM | 37.4 µM and > 100 µM | 14.4 µM and 2.86 µM | 47.2 µM and 19.6 µM |  | 97.6 µM and 33.6 µM | 13.7 µM and 4.2 µM | 33.8 µM and 85.2 µM | 16.9 µM and 7.69 µM | 40.2 µM and > 100 µM |  | 29.5 µM and > 100 µM | 22.7 µM and > 100 µM | 51.3 µM and > 100 µM |  | > 100 µM | 22 µM and 3.08 µM | 58.8 µM and > 100 µM |  | 37.5 µM and > 100 µM
11 | [Cl][Hg][c]1cc(Br)cc(Br)c1 | 3.83 µM | 14.8 µM | 2.78 µM | 11.8 µM | 1.69 µM | 3.28 µM | 3.48 µM | 8.84 µM | 1.19 µM | 2.46 µM | 3.31 µM | 15.7 µM | 4.07 µM | 13 µM | 2 µM | 7.88 µM | 2.9 µM | 6.35 µM | 0.441 µM | 1.67 µM
12 | S=C1NC2(CCCCCC2)NN1c1ccccc1 |  | > 100 µM |  | > 100 µM |  | > 100 µM |  | > 100 µM |  | > 100 µM |  | > 100 µM |  | > 100 µM |  | > 100 µM |  | > 100 µM |  | > 100 µM
13 | O=C(O)CCC(=O)c1ccc[nH]1 |  | > 100 µM |  | > 100 µM |  | > 100 µM |  | > 100 µM |  | > 100 µM |  | > 100 µM |  | > 100 µM |  | > 100 µM |  | > 100 µM |  | > 100 µM
14 | O=C(O)C1C2C=CC(O2)C1C(=O)NCc1ccccn1 (centres undefined) |  | > 100 µM |  | > 100 µM |  | > 100 µM |  | > 100 µM |  | > 100 µM |  | > 100 µM |  | > 100 µM |  | > 100 µM |  | > 100 µM |  | > 100 µM
15 | CCN(CC)c1ccc2c(c1)OC(N)=C(C#N)C2c1cc(OC)c2c(c1)OCO2 (centres undefined) | 0.101 µM | 6.7 µM | 0.0325 µM | 0.603 µM | 0.445 µM | 5.59 µM | 0.047 µM | 0.942 µM | 0.0168 µM | 0.0466 µM | < 0.0157 µM | 2.68 µM | 0.035 µM | 12.7 µM | 3.32 µM | 22 µM | 0.316 µM | 25.5 µM | 0.0408 µM | 2.38 µM
16 | COc1ccc(-n2cc(-c3cc(OC)c(OC)c(OC)c3)c(C(=O)C(F)(F)F)c2C)cc1 | 54.6 µM | > 100 µM | 32.6 µM | > 100 µM | > 100 µM | > 100 µM | > 100 µM | > 100 µM | 24.9 µM | > 100 µM | > 100 µM | > 100 µM | > 100 µM | > 100 µM | 3.81 µM | > 100 µM | 35.7 µM | > 100 µM | 63.4 µM | > 100 µM
17 | CCN1CCN(C(c2ccc(C(F)(F)F)cc2)c2ccc3cccnc3c2O)CC1 (centres undefined) | 3.04 µM | 11.2 µM | 0.89 µM | 16.8 µM | 3.72 µM | 15.4 µM | 3.09 µM | 13.7 µM | 3.47 µM | 15.4 µM | 0.313 µM | 4.39 µM | 3.84 µM | 16.8 µM | 4.19 µM | 15.2 µM | 10 µM | 22 µM | 0.658 µM | 11.4 µM
18 | C=COCCCOc1ccccc1 |  | > 100 µM |  | > 100 µM |  | > 100 µM |  | > 100 µM |  | > 100 µM | > 100 µM | > 100 µM | > 100 µM | > 100 µM | > 100 µM | > 100 µM |  | > 100 µM |  | > 100 µM
19 | Clc1nc2ccccc2nc1CI | 1.78 µM | 3.27 µM | 18.2 µM | 46.5 µM | 2.2 µM | 4.52 µM | 2.67 µM | 8.24 µM | 5.1 µM | 9.66 µM | 18.9 µM | 44.9 µM | 14.3 µM | 30.4 µM | 2.5 µM | 6.76 µM | 3.94 µM | 8.7 µM | 7.38 µM | 20.8 µM
20 | C=C1CC[C@@H]2[C@](C)(COC(C)=O)[C@H](OC(C)=O)CC[C@@]2(C)[C@@H]1CC(Sc1ccccc1)C1=CCOC1=O (some centres undefined) | 1.34 µM | 2.84 µM | 1.4 µM | 2.96 µM | 1.74 µM | 3.63 µM | 2.3 µM | 5.98 µM | 1.14 µM | 2.37 µM | 4.12 µM | 27.3 µM | 4.44 µM | 16.8 µM | 2.01 µM | 8.32 µM | 2.83 µM | 5.54 µM | 1.56 µM | 2.96 µM
